Key:
CFA-hindpaw inflammation = experiment: CFA-hindpaw inflammation, paw pressure test (CFA-PPT), intraperitoneal injection; format: in vivo, rat
Description: An interaction study was performed as a single dose study in the CFA-hindpaw inflammation, paw pressure test.
In comparative example 1 and inventive examples 1 to 4 described below, a compound or combination of compounds was administered by intraperitoneal injection (FIGS. 1 to 9).
(§1) The pain was measured by pressing a pointer on the inflamed paw. The pointer exerts a force, increasing at a constant rate, monitored by a linear scale. Pain is deemed to be perceived one the rat starts to withdraw the paw. This value (withdrawal threshold in gram) is the pressure at which the animal feels pain (cut-off 450 g). Efficacy of the test compounds is expressed as a percent change of withdrawal threshold after compound administration to the pre-value (withdrawal threshold before compound administration).

[1] = test system: CFA-induced edema of paw / mechanical-hyperalgesia; experiment: CFA-hindpaw inflammation, paw pressure test (CFA-PPT), topical application to the paw; format: in vivo, rat
Description: In comparative example 2 and inventive examples 5 to 8 as described below, a compound or combination of compounds was administered topically to the paw by means of an ointment or solution (FIGS. 10 to 18).
The efficacy was tested when a compound or a compositions of compounds was administered topically as an ointment or a solution. The study was performed on male albino rats (150-180 g body weight) to which an edema of paw was induced by injection of Complete Freunds Adjuvant (CFA). CFA is a composition of inactivated and dried Myobacteria tuberculoses, emulsified in mineral oil which is used as an immunopotentiator causing a painful reaction that lasts 7-8 days after subcutaneous injection.
The studies of comparative example 2 and inventive examples 5 to 8 were performed according to the following procedure: 50 μL of CFA were injected sub plantar into the right hind paw, inducing mechanical-hyperalgesia after 24 hours. […]
as §1, with “Pain is deemed to be perceived one the rat starts to withdraw the paw. This value (withdrawal threshold in gram) is the pressure at which the animal feels pain (cut-off 450 g).” left out

## CCN(CC)CC(=O)Nc1c(C)cccc1C [Lidocaine, 2-(diethylamino)-N-(2,6-dimethylphenyl)acetamide]
CFA-hindpaw inflammation; Lidocaine alone, dose range 10 mg/kg to 46.4 mg/kg ip
  efficacy in CFA-PPT when administered alone: dose dependent efficacy
[1]; Lidocaine alone, 30 mg/ml to 60 mg/ml
  efficacy in CFA-PPT when topically administered alone: dose dependent efficacy

## O=C(O)Cc1ccccc1Nc1c(Cl)cccc1Cl [Diclofenac, 2-(2,6-dichloranilino) phenylacetic acid]
CFA-hindpaw inflammation; Diclofenac alone, dose range 21.5 mg/kg to 100 mg/kg ip
  efficacy in CFA-PPT when administered alone: dose dependent efficacy
[1]; Diclofenac alone, 40 mg/ml to 80 mg/ml
  efficacy in CFA-PPT when topically administered alone: dose dependent efficacy
